# Laboratory results: BindingDB's records for patent US20250066349 (Prothena Biosciences, 2025)
# Target: Dual specificity tyrosine-phosphorylation-regulated kinase 1A (Homo sapiens, UniProt Q13627)
# Experiment: DYRK1A Inhibition Assay
# Method: 1. Add 5 μL enzyme & substrate mixture to each well in Column 2-23 and A24-H24 wells of the 384-well assay plate;2. Add 5 μL 0% Phosphorylation control to A1-H1 and I24-P24 wells of the assay plate;3. Add 5 μL 100% Phosphorylation control to I1-P1 wells of the assay plate;4. Spin the assay plate (1000 rpm, 1 minute @23° C.);5. Incubate enzyme with compounds for 15 minutes at 23° C.;6. Add 5 μL ATP solution to each well of the assay plate;7. Spin the plate (1000 rpm, 1 minute @23° C.);8. Incubate the assay plate for 90 minutes at 23° C.;9. Add 10 μL Development reagent A to each well of the assay plate;10. Centrifuge the plate at 1000 rpm about 15 seconds and seal a film over assay plate. Incubate the assay plate for 30 minutes at 23° C.11. Read assay plates on Envision (see Tables A-D).
row,IC50 [nM],Structure (SMILES)
1,< 500,"CN(C)CCOc1ccc2c(c1)[nH]c(=O)c1cc(-c3ccncc3)cn12 [US20250066349, Compound IV.18]"
2,< 10,"Cc1c(C2CCOCC2)[nH]c2ncc3ccc(-c4cnn(C)c4)cc3c12 [US20250066349, Compound I.51]"
3,> 1000,"COC(=O)c1ccc2c(cnc3[nH]cc(-c4ccc(F)cc4)c32)c1 [US20250066349, Compound I.4]"
4,< 500,"CC(=O)N1CCc2c(cnc3[nH]cc(-c4ccc5c(c4)OCO5)c23)C1 [US20250066349, Compound IV.6]"
5,< 10,"Cn1cc(-c2ccc3c(-c4ccc5cnsc5c4)cnn3c2)ccc1=O [US20250066349, Compound II.2]"
6,< 10,"COC1CC(c2c[nH]c3ncc4ccc(-c5cnn(C)c5)cc4c23)C1 (configuration not stated) [US20250066349, Compound I.23]"
7,> 5000,"CN1CCc2c([nH]c(=O)c3cc(C4=CCOCC4)ccc23)C1 [US20250066349, Compound IV.23]"
8,< 500,"Cn1ncc2c3ccc(C#N)cc3ncc21 [US20250066349, Compound IV.14]"
9,< 10,"Cn1cc(-c2ccc3cnc4[nH]cc(C5CC(O)C5)c4c3c2)cn1 (configuration not stated) [US20250066349, Compound I.18]"
10,< 10,"Cn1cc(-c2ccc3cnc4[nH]cc(C5CCC(O)CC5)c4c3c2)cn1 (configuration not stated) [US20250066349, Compound I.14]"
11,< 50,"CN1CCC(C(=O)Nc2ncc(-c3ccc4oncc4c3)s2)CC1 [US20250066349, Compound III.4]"
12,< 500,"CC(=O)N1CCc2c(cnc3[nH]cc(C4CCC4)c23)C1 [US20250066349, Compound IV.1]"
13,< 10,"COC1CCC(c2c[nH]c3ncc4ccc(-c5cnn(C)c5)cc4c23)CC1 (configuration not stated) [US20250066349, Compound I.13]"
14,< 10,"Cn1cc(-c2ccc3cnc4[nH]cc(C5CCC(C(=O)O)CC5)c4c3c2)cn1 (configuration not stated) [US20250066349, Compound I.24]"
15,> 5000,"CN1CCc2c([nH]c(=O)c3cc(C4CCOCC4)ccc23)C1 [US20250066349, Compound IV.22]"
16,< 10,"Cc1ncc(-c2ccc3cnc4[nH]cc(C5CCCCC5)c4c3c2)s1 [US20250066349, Compound I.6]"
17,< 10,"COC1CC=C(c2n[nH]c3ncc4ccc(-c5cnn(C)c5)cc4c23)CC1 (configuration not stated) [US20250066349, Compound I.8]"
18,< 10,"Cn1cc(-c2ccc3cnc4[nH]cc(C5CCC5)c4c3c2)cn1 [US20250066349, Compound I.1]"
19,> 5000,"COc1ccc(-c2ccc3c4c([nH]c(=O)c3c2)CN(C)CC4)cc1OC [US20250066349, Compound IV.24]"
20,< 50,"CN1CCC(C(=O)Nc2ncc(-c3ccc4c(c3)COC4=O)s2)CC1 [US20250066349, Compound III.2]"
21,< 10,"Cn1cc(-c2ccc3c(-c4ccc5cnn(C)c5c4)cnn3c2)ccc1=O [US20250066349, Compound II.1]"
22,> 5000,"N#Cc1ccc2c(c1)ncc1c(Oc3cccc(Cl)c3)cncc12 [US20250066349, Compound IV.21]"
